Reference: US5814610A, “Osteogenic growth oligopeptides and pharmaceutical compositions containing them” (Yissum Research Development Company of the Hebrew …, priority 1993, dated 1998)
No end group written: not given here.

What was measured:
[1] = system: osteoblastic MC3T3E1 cells; assay: Proliferative activity: osteoblastic MC3T3E1 cell number in vitro; type: cell-based; settings: for Proliferative effect on cell number (magnitude, compared with positive sOGP control): MC3T3E1 cells
NIH 3T3 fibroblasts = assay: Proliferative activity: fibroblastic NIH 3T3 cell number in vitro; type: cell-based; settings: NIH 3T3 cells
[2] = Kharchenko et al.; cited from earlier work

Ac-MYGFGG [Ac-Met^0 [OGP(10-14)], Ac--Met--Tyr--Gly--Phe--Gly--Gly]
Peptide concentration of peak proliferative activity ([1]; MC3T3E1 cell number): 10^-13 M | Proliferative effect on cell number (magnitude, compared with positive sOGP control) [1]: closely similar to that of positive sOGP controls | Proliferative effect on cell number (magnitude, compared with positive sOGP control) (NIH 3T3 fibroblasts): closely similar to that of positive sOGP controls

Tyr--Gly--Phe--Gly--Gly (YGFGG; printed: Tyr--Gly--Phe--Gly--Gly) [OGP(10-14)]
Analgesic and opioid activity [2]: analgesic and opiod activity

Gly--Gly [OGP(13-14)]
Proliferative effect on cell number (magnitude, compared with positive sOGP control) [1]: did not affect | Proliferative activity, Percent Activity of Full Length Peptide [OGP(1-14)], Mean ([1]; MC3T3 E1 cells, mean of experiments): 0% | Proliferative effect on cell number (magnitude, compared with positive sOGP control) (NIH 3T3 fibroblasts): did not affect | Proliferative activity, Percent Activity of Full Length Peptide [OGP(1-14)], Mean (NIH 3T3 fibroblasts; mean of experiments): 0%
